Results from ChEMBL document CHEMBL5576088, “Skin- and airway-deliverable TRPA1 inhibitor” (Bioorg Med Chem, 2024).
Active and inactive are the calls of the source. No cut-off for these calls is given here.

Assays:
[1] = biological target: T1, Transient receptor potential cation channel subfamily A member 1 (Homo sapiens, UniProt O75762); experiment: Antagonist activity at human TRPA1 expressed in HEK293 cells assessed as inhibition of AITC-induced intracellular Ca2+ flux in presence of 5 uM AITC by Fluo4-AM dye based fluorescence analysis; format: cell-based
T1 sequence (O75762 whole entry): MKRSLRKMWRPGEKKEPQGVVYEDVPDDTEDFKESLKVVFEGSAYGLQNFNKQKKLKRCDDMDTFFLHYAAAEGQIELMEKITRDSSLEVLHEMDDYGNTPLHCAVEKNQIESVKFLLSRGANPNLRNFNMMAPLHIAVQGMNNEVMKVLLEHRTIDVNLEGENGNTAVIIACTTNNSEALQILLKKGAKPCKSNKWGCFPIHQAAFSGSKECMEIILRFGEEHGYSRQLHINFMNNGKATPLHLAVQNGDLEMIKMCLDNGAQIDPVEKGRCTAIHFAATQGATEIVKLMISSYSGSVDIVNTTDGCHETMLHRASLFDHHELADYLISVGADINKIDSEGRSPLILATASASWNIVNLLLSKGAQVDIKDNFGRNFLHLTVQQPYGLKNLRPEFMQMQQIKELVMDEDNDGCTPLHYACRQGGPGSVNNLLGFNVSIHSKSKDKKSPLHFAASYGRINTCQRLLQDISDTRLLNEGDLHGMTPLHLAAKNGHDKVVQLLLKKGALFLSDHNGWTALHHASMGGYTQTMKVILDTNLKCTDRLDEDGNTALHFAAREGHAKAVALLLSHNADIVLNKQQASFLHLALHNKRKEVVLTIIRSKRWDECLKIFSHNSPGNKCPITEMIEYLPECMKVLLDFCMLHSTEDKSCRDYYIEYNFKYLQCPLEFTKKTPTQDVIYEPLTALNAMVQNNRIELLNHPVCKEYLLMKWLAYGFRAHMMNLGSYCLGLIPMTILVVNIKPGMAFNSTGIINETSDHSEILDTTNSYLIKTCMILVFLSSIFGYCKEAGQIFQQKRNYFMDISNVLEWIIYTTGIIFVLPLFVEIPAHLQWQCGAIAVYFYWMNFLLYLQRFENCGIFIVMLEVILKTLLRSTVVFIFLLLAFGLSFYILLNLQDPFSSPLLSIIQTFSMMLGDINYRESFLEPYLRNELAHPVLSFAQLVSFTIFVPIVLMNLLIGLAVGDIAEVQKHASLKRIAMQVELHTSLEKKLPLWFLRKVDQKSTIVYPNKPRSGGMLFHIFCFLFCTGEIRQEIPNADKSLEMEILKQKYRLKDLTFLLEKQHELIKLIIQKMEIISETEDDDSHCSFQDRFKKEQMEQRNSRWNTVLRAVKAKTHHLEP

[2] = biological target: T1, Transient receptor potential cation channel subfamily A member 1; experiment: Antagonist activity at human TRPA1 expressed in HEK293T cells assessed as inhibition of AITC-induced current by whole cell patch clamp analysis; format: cell-based
[3] = biological target: T1, Transient receptor potential cation channel subfamily A member 1; experiment: Antagonist activity at full length human TRPA1 expressed in HEK293 cells assessed as inhibition of AITC-induced intracellular Ca2+ flux in presence of 10 uM AITC by Fluo4-AM dye based fluorescence analysis; format: cell-based
Homo sapiens = experiment: Inhibition of methylparaben/phenoxyethanol-induced sensory irritation in human at 0.2% applied topically and measured for 8 mins; format: functional, organism-based; settings: route top
[4] = biological target: T1, Transient receptor potential cation channel subfamily A member 1; experiment: Antagonist activity at wildtype human TRPA1 expressed in HEK293 cells assessed as inhibition of AITC-induced intracellular Ca2+ flux at 100 uM in presence of 5 uM AITC by Fluo4-AM dye based fluorescence analysis; format: cell-based; settings: filed as antagonist

SMILES: CC(CCO)CC(C)c1ccccc1 (mixture of isomers)
- IC50 [1]: 19.8 µM

SMILES: CC1(C)[C@@H]2CC[C@@]1(C)[C@](C)(O)C2
- IC50 [2]: 120 µM

SMILES: CCC(O)C(C)Cc1ccccc1 (mixture of isomers)
- IC50 [1]: 21.8 µM

SMILES: CC1(C)C2CCC1(C)C(O)C2 (racemic) [BORNEOL]
- IC50 [3]: 529 µM
- inhibition (Homo sapiens): inactive

SMILES: CC(C)c1ccc(NC(=O)Cn2cnc3c2c(=O)n(C)c(=O)n3C)cc1
- Activity [4]: Active

SMILES: C/C(=C\C(C)c1ccccc1)CO (racemic)
- IC50 [1]: 32.1 µM

SMILES: CC(CO)C(C)Cc1ccccc1 (mixture of isomers)
- IC50 [1]: 17 µM

SMILES: CC(=C\c1ccc(Cl)cc1)/C(C)=N/O [AP18 5]
- Activity [4]: Active
- IC50 [3]: 1.72 µM
